Experimental data published in patent publication US4061630A, “7-Substituted-ureido-3-carbamoyloxymethyl cephalosporin antibiotics” (Eli Lilly and Company, priority 1976, dated 1977).
≈ marks a conversion by molar mass, not a printed value.

Tests used:
Shigella sp. = experiment: in vitro antibiotic activity by the Gradient Plate method, Shigella; assay type: cell-based; details: read-out: Minimum Inhibitory Concentration vs. Shigella sp.
Protocol: (§1) The antibiotic activity for these compounds is illustrated by the activity data in the following Table II. In the Table, the compounds designated by the groups R, R1 and R2 have reference to the following formula I [drawing 35] and the in vitro activity was determined by the Gradient Plate method.

Escherichia coli = experiment: in vitro antibiotic activity by the Gradient Plate method, E. coli; assay type: cell-based; details: read-out: Minimum Inhibitory Concentration vs. Escherichia coli
Protocol: as §1

Klebsiella pneumoniae = experiment: in vitro antibiotic activity by the Gradient Plate method, Klebsiella; assay type: cell-based; details: read-out: Minimum Inhibitory Concentration vs. Klebsiella pneumoniae
Protocol: as §1

Enterobacter aerogenes = experiment: in vitro antibiotic activity by the Gradient Plate method, Enterobacter; assay type: cell-based; details: Klebsiella aerogenes, read-out: Minimum Inhibitory Concentration vs. Enterobacter aerogenes
Protocol: as §1

Salmonella heidelberg = experiment: in vitro antibiotic activity by the Gradient Plate method, Salmonella; assay type: cell-based; details: Salmonella enterica, read-out: Minimum Inhibitory Concentration vs. Salmonella heidelberg
Protocol: as §1

Pseudomonas aeruginosa = experiment: in vitro antibiotic activity by the Gradient Plate method, Pseudomonas; assay type: cell-based; details: read-out: Minimum Inhibitory Concentration vs. Pseudomonas aeruginosa
Protocol: as §1

Serratia marcescens = experiment: in vitro antibiotic activity by the Gradient Plate method, Serratia; assay type: cell-based; details: read-out: Minimum Inhibitory Concentration vs. Serratia marcescens
Protocol: as §1

Titration 66 percent DMF = assay type: physicochemical; details: 66% dmf
From the text: IR (KBr): 1770 cm^-1 (β-lactam carbonyl) U.V. (methanol): γ max 278 (ε17,921) Titration 66 percent DMF: pKa 4.98.

pKa (Titration 66 percent DMF)	Compound	MIC (Shigella sp.) [µg/mL]	MIC (Escherichia coli) [µg/mL]	MIC (Klebsiella pneumoniae) [µg/mL]	MIC (Enterobacter aerogenes) [µg/mL]	MIC (Salmonella heidelberg) [µg/mL]	MIC (Pseudomonas aeruginosa) [µg/mL]	MIC (Serratia marcescens) [µg/mL]
	CS(=O)(=O)N1CCN(C(=O)NC(C(=O)NC2C(=O)N3C(C(=O)O)=C(COC(N)=O)CSC23)c2ccc(O)cc2)C1=O (stereo not drawn)	4.3 (≈ 7.02 µM)	10 (≈ 16.3 µM)	5.5 (≈ 8.98 µM)	10 (≈ 16.3 µM)	4.8 (≈ 7.84 µM)	47.5 (≈ 77.5 µM)	100 (≈ 163 µM)
4.98	CN(C(=O)C=Cc1ccccc1)C(=O)N[C@@H](C(=O)NC1C(=O)N2C(C(=O)O)=C(COC(N)=O)CSC12)c1ccccc1 (stereo partly drawn) [Example 8, 7-[D-α-(3-Cinnamoyl-3-methyl-1-ureido)-α-phenylacetamido]-3-carbamoyloxymethyl-3-cephem-4-carboxylic acid]							
	CNC(=O)NC(=O)NC(C(=O)NC1C(=O)N2C(C(=O)O)=C(COC(N)=O)CSC12)c1ccc(O)cc1 (stereo not drawn)	17.3 (≈ 33.1 µM)	27.2 (≈ 52.1 µM)	100 (≈ 191 µM)	18.5 (≈ 35.4 µM)	12.5 (≈ 23.9 µM)	33.3 (≈ 63.7 µM)	> 200
	CNC(=O)N(C)C(=O)NC(C(=O)NC1C(=O)N2C(C(=O)O)=C(COC(N)=O)CSC12)c1ccccc1 (stereo not drawn)	7 (≈ 13.4 µM)	17.8 (≈ 34.2 µM)	7.8 (≈ 15 µM)	19.5 (≈ 37.5 µM)	8.5 (≈ 16.3 µM)	18.3 (≈ 35.2 µM)	67.5 (≈ 130 µM)
	NC(=O)OCC1=C(C(=O)O)N2C(=O)C(NC(=O)C(NC(=O)NC(=O)c3ccco3)c3ccc(O)cc3)C2SC1 (stereo not drawn)	12.5 (≈ 22.3 µM)	17.2 (≈ 30.7 µM)	16 (≈ 28.6 µM)	17.2 (≈ 30.7 µM)	16 (≈ 28.6 µM)	10 (≈ 17.9 µM)	120 (≈ 214 µM)
	CN(C(=O)C=Cc1ccccc1)C(=O)NC(C(=O)NC1C(=O)N2C(C(=O)O)=C(COC(N)=O)CSC12)c1ccccc1 (stereo not drawn)	1 (≈ 1.68 µM)	5.5 (≈ 9.27 µM)	0.3 (≈ 0.505 µM)	8 (≈ 13.5 µM)	6.5 (≈ 10.9 µM)	21.8 (≈ 36.7 µM)	8 (≈ 13.5 µM)
	CNC(=O)N(C)C(=O)NC(C(=O)NC1C(=O)N2C(C(=O)O)=C(COC(N)=O)CSC12)c1ccc(O)cc1 (stereo not drawn)	4.5 (≈ 8.39 µM)	10 (≈ 18.6 µM)	10 (≈ 18.6 µM)	5.5 (≈ 10.3 µM)	5 (≈ 9.32 µM)	13.5 (≈ 25.2 µM)	160 (≈ 298 µM)
	CNC(=O)OCC1=C(C(=O)O)N2C(=O)C(NC(=O)C(NC(=O)N(C)C(=O)NC)c3ccccc3)C2SC1 (stereo not drawn) [7-[α-(3-Methylcarbamoyl-3-methyl-1-ureido)-α-phenylacetamido]-3-N-methylcarbamoyloxymethyl-3-cephem-4-carboxylic acid]	5.5 (≈ 10.3 µM)	15.5 (≈ 29 µM)	7 (≈ 13.1 µM)	19.5 (≈ 36.5 µM)	8.5 (≈ 15.9 µM)	30 (≈ 56.1 µM)	42.5 (≈ 79.5 µM)
	CNC(=O)NC(=O)NC(C(=O)NC1C(=O)N2C(C(=O)O)=C(COC(N)=O)CSC12)c1ccccc1 (stereo not drawn)	21.5 (≈ 42.4 µM)	51.3 (≈ 101 µM)	35 (≈ 69.1 µM)	65 (≈ 128 µM)	30 (≈ 59.2 µM)	22.8 (≈ 45 µM)	> 200
